Laboratory results taken from EP0235942B1, “Alkylenediamine derivatives” (NIPPON CHEMIPHAR CO., LTD., priority 1986, dated 1987).

Tests used:
[1] = system: Neuromuscular Junction of Crayfish; experiment: Glutamate blocking effect on neuromuscular junction of crayfish (intracellular recording of the L-glutamate-induced potential); type: cell-based; conditions: for inhibition at 0.5 µM / inhibition at 20 µM: 5 min; for inhibition at 0.5 µM: as Table 1, but concentration of the pretreatment liquid reduced to 5 x 10⁻⁷ M; for glutamate response after washing: treated sample washed with circulating salt solution for 40 min, then glutamate response measured; for inhibition at 20 µM: inhibition ratio of glutamate potential induced by L-glutamate (1 x 10⁻⁴M), pretreated with test solution (2 x 10⁻⁵ M) for 5 min
Method: (1) Evaluation of glutamate blocking effect was performed according to the methods of Ishida et al [J. Physiol., 298, 301-319(1980)], and Shinozaki et al[Comp. Biochem. Physiol, 70c, 49-58(1981)]. In more detail, the opener muscle of the first walking leg of the crayfish is employed for the examination described below. A neuromusculor sample is fixed in a vessel, and an aqueous salt solution for crayfish [composition: NaCℓ (195 mM), CaCℓ₂ (18mM), KCℓ (5.4 mM), Tris-maleate buffer (pH 7.5, 10 mM), and glucose (11 mM)] was circulated at a constant rate into the vessel. A glass microelectrode filled with 3M KCℓ solution was inserted into the middle portion of the muscle fibre and the change of potential induced by L-glutamate (1 x 10⁻⁴M) was measured intracellularly. The glutamate blocking effect of the compound to be tested was evaluated by determining an inhibition ratio of glutamate potential protreated by the test solution (2 x 10⁻⁵ M) for 5 min.
(2) The glutamate blocking effects of the compound of the present invention as described in Synthesis Example 3 (i.e. 1-[3-[4-methyl-1-(3-methylbutyl)penty]amino]propyl]piperidine) and the known 5-methyl-1-phenyl-2-(3-piperidinopropylamino)hexan-1-ol were evaluated in the same manner as above except that the concentration of the liquid for the pretreatment was reduced from 2 x 10⁻⁵ M to 5 x 10⁻⁷ M. The results are set forth in Table 2.
(§1) (3) The neuromuscular sample which was fixed in the vessel and treated in the above manner was subsequently washed with the salt solution flowing in the vessel under circulation for 40 min. After such washing was complete, the glutamate response was measured on the wahsed neuromuscular sample. […] Accordingly, it was confirmed that the glutamate blocking action of the aninoalcohol derivative was not kept for sufficient period of time. […] The prolongation of the effect of glutamate response shown in using this alkylenediamine compound was also observed on the alkylenediamine derivatives tested in the (1) above, (4) Acute toxicity (LD₅₀, i.v.) was measured on the alkylenediamine drivatives of the invention and the known aminoalcohol derivative.

[2] = Acute toxicity (LD50, i.v.); conditions: in vivo, iv, read-out: Acute Toxicity (LD₅₀)
Method: as §1

[3] = system: opener muscle of the first walking leg of the crayfish; conditions: dose of 2 x 10⁻⁴M; glutamic acid (1x10⁻⁴M); cited from earlier work

| Compound | inhibition at 20 µM [1] | also measured |
| --- | --- | --- |
| CC(C)CCC(NCCCN1CCCCC1)C(O)c1ccccc1 (stereo not drawn) [5-Methyl-1-phenyl-2-(3-piperidinopropylamino)hexan-1-ol, reference compound] | – | inhibition at 0.5 µM [1]: 6%; glutamate response after washing [1]: almost the same level as shown by the sample prior to the treatment; LD50 [2]: 13.6 mg/kg |
| COc1ccc([C@@H]2Sc3ccccc3N(CCN(C)C)C(=O)[C@@H]2OC(C)=O)cc1 [Diltiazem] | – | inhibition of depolarization induced by glutamic acid [3]: approx. 30% |
| CC(C)CCC(CNCCCN1CCCCC1)c1ccccc1 (stereo not drawn) [Synthesis Example 1, 1-[3-(5-Methyl-2-phenylhexylamino)propyl]piperidine] | 99% | – |
| CCCCCC(CCCCC)NCCCN1CCCCC1 [Synthesis Example 2, 1-[3-(1-Pentylhexylamino)propyl]piperidine] | 80% | LD50 [2]: 23.3 mg/kg |
| CC(C)CCC(CCC(C)C)NCCCN1CCCCC1 [Synthesis Example 3, 1-[3-[4-Methyl-1-(3-methylbutyl)pentylamino]propyl]-piperidine] | 99% | inhibition at 0.5 µM [1]: 25%; glutamate response after washing [1]: almost no glutamate response; LD50 [2]: 29.5 mg/kg |
| CC(C)CCC(Cc1ccccc1)NCCCN1CCCCC1 (stereo not drawn) [Synthesis Example 4, 1-[3-(1-Benzyl-4-methylpentylamino)propyl]piperidine] | 99% | – |
| CC(C)CCOC(CNCCCN1CCCCC1)c1ccccc1 (stereo not drawn) [Synthesis Example 7] | 96% | – |
| c1ccc(OC(CNCCCN2CCCCC2)c2ccccc2)cc1 (stereo not drawn) [Synthesis Example 8, 1-[3-(2-Phenoxy-2-phenylethylamino)propyl]piperidine] | 94% | – |
| CC(C)CC(=O)OCC(Cc1ccccc1)NCCCN1CCCCC1 (stereo not drawn) [Synthesis Example 9, 3-Phenyl-2-(3-piperidinopropylamino)propyl 3-methylbutanoate] | 90% | – |
| CC(C)CCC(CCc1ccccc1)NCCCN1CCCCC1 (stereo not drawn) [Synthesis Example 10, 1-[3-[4-Methyl-1-(2-phenylethyl)pentylamino]propyl]piperidine] | 99% | – |
| CC(C)CCC(CCNCCCN1CCCCC1)Cc1ccccc1 (stereo not drawn) [Synthesis Example 11, 1-[3-(3-Benzyl-6-methylheptylamino)propyl]piperidine] | 96% | – |
| CC(C)CCC(CNCCCN1CCCCC1)Cc1ccccc1 (stereo not drawn) [Synthesis Example 12, 1-[3-(2-Benzyl-5-methylhexylamino)propyl]piperidino] | 98% | – |
| CC(C)CCC(CCCc1ccccc1)NCCCN1CCCCC1 (stereo not drawn) [Synthesis Example 13, 1-[3-[4-Methyl-1-(3-phenylpropyl)pentylamino]propyl]piperidine] | 96% | – |
| CCC(CC)C(CCC(C)C)NCCCN1CCCCC1 (stereo not drawn) [Synthesis Example 15, 1-[3-[1-(1-Ethylpropyl)-4-methylpentylamino]propyl]piperidine] | 94% | – |
| CCCCCC(CCC(C)C)NCCCN1CCCCC1 (stereo not drawn) [Synthesis Example 18, 1-[3-[1-(3-Methylbutyl)hexylamino]propyl]piperidine] | 97% | – |
| CC(C)CCC(CCC(C)(C)C)NCCCN1CCCCC1 (stereo not drawn) [Synthesis Example 19, 1-[3-[4,4-Dimethyl-1-(3-methylbutyl]pentylamino]propyl]piperidine] | 88% | – |
| CC(C)CCC(CCC(C)C)NCCCN1CCCC1 [Synthesis Example 20, 1-[3-[4-methyl-1-(3-methylbutyl)pentylamino]propyl]pyrrolidine] | 96% | – |
| CC(C)CCN(CCCN1CCCCC1)CCC(C)C [Synthesis Example 26, 1-[3-[N,N-Bis-(3-methylbutyl)amino]propyl]piperidine] | 91% | LD50 [2]: 24.8 mg/kg |
| CC(C)CCN(CCCN1CCCCC1)CCOc1ccccc1 [Synthesis Example 28, 1-[3-[3-Methyl-N-(2-phenoxyethyl)butylamino]propyl]piperidine] | 72% | – |
| CC(C)CCN(CCCN1CCCCC1)CCc1ccccc1 [Synthesis Example 29, 1-[3-[3-Methyl-N-(2-phenylethyl)butylamino]propyl]piperidine] | 80% | – |
| CC(C)CCN(CCCc1ccccc1)CCCN1CCCCC1 [Synthesis Example 30, 1-[3-[3-Methyl-N-(3-phenylpropyl)butylamino]propyl]piperidine] | 96% | – |
| CCCCCCN(CCCN1CCCCC1)CCC(C)C [Synthesis Example 33, 1-[3-[N-hexyl-N-(3-methylbutyl)amino]propyl]piperidine] | 83% | – |
| CCCCCCCN(CCCN1CCCCC1)CCC(C)C [Synthesis Example 34, 1-[3-[N-heptyl-N-(3-methylbutyl)amino]propyl]piperidine] | 91% | – |
| CC(C)CCCCN(CCCCN1CCCCC1)CCC(C)C [Synthesis Example 38, 1-[4-[N-(3-Methylbutyl)-N-(5-methylhexyl)amino]butyl]piperidine] | 96% | – |
| CC(C)CCCCN(CCCN1CCCCCC1)CCC(C)C [Synthesis Example 41, 1-[3-[N-(3-Methylbutyl)-N-(5-methylhexyl)amino]propyl]perhydroazepin] | 100% | – |
| Caroberine | – | inhibition of depolarization induced by glutamic acid [3]: approx. 30% |
